The test deals with hFEN1 (Homo sapiens (Human), UniProt P39748). Kind of test: Enzymatic IC50 assay, FAM-labeled DNA oligomer substrate, fluorescence intensity (FEN1). The class given is biochemical. As to conditions: hFEN1 70 pM, substrate 100 nM, reaction time 20 minutes, 23° C. The protocol:
FEN1, EXO1 or XPG enzyme was incubated with compound or vehicle (DMSO) and the FAM-labeled DNA oligomer substrate in a microtiter plate. The stop buffer contains EDTA to stop the enzymatic reaction. The plate is read for fluorescence intensity. The high control (DMSO) with high fluorescence intensity represents no inhibition of enzymatic reaction while the low control (10 μM) with low fluorescence intensity represents full inhibition of enzymatic reaction.
• FEN1 • hFEN1: 70 pM • Substrate: 100 nM • Reaction time: 20 minutes • EXO1 • hEXO1: 6 nM, Isoforml • Substrate: 30 nM • Reaction time: 60 minutes • XPG • hXPG: 100 nM • Substrate: 100 nM • Reaction time: 120 minutes
Annealing Buffer: 50 mM Tris-HCl, 50 mM NaCl, 1 mM DTT Assay buffer: 50 mM Tris-HCl pH 8.0, 10 mM MgCl2, 0.01% BSA, 1 mM DTT Stop buffer: 50 mM EDTA in assay buffer Temperature: 23° C. Total volume: 40 μl Controls: • 0% inhibition control: DMSO • 100% inhibition control: 10 μM (final) 5-chloro-3-hydroxy-1,3-dihydroquinazoline-2,4-dione Enzyme Reaction and Detection: • 1. Prepare 25 μM intermediate stock of the substrate by diluting SEQ ID NO:1, SEQ ID NO:2, and SEQ ID NO:3 in annealing buffer, in a PCR tube. • 2. Place the PCR tube on a heat block, heat at 95° C. for 3 minutes, then drop in 0.2° C. increments over 2 minutes, stopping at 25° C. • 3. Remove the tube and let the tube cool at room temperature. • 4. Transfer 10 μL of 3× final concentration test compounds or DMSO to the appropriate wells of a microtiter plate. • 5. Transfer 10 μL of 3× final concentration enzyme in assay buffer or assay buffer alone to the appropriate wells. • 6. Incubate the plate at room temperature for 15 minutes. • 7. Transfer 10 μL of 3× substrate in assay buffer to all the test wells. • 8. Incubate the plate at room temperature for prescribed reaction time. • 9. Centrifuge the plate at 1000 rpm for 1 minute. • 10. Transfer 10 μL of stop buffer to all the test wells. • 11. Centrifuge the plate at 1000 rpm for 1 minute. • 12. Read the plate on a plate reader.
Sequence of hFEN1 (P39748 whole entry): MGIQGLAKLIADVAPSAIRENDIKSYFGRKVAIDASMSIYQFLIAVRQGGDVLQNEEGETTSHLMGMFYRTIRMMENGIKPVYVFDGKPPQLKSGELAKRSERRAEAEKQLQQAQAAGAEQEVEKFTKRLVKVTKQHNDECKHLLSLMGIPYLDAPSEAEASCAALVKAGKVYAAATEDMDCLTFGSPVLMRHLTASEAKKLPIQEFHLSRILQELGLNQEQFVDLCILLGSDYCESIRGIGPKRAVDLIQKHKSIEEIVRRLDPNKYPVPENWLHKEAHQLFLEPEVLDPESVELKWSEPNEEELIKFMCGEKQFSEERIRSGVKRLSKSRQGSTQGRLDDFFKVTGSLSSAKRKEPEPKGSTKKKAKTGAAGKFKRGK
Broadly, the IC50 is the concentration needed to halve the response being measured. Low readings indicate inhibition by little substance, high ones a need for much substance. For `Cn1nccc1Cn1cc(Cn2c(=O)c(O)c(C(=O)O)c3sccc32)cn1` [Example 124, 6-hydroxy-4-({1-[(1-methyl-1H-pyrazol-5-yl)methyl]-1H-pyrazol-4-yl}methyl)-5-oxo-4,5-dihydrothieno[3,2-b]pyridine-7-carboxylic acid], the IC50 is below 200 nM.
`COc1ccccc1Cn1c(=O)c(O)c(C(=O)O)c2sccc21` [Example 64, 6-hydroxy-4-(2-methoxybenzyl)-5-oxo-4,5-dihydrothieno[3,2-b]pyridine-7-carboxylic acid] registered a half-maximal inhibitory concentration (IC50) of 2250 to 10000 nM.
As for `N#Cc1ccccc1Cn1c(=O)c(O)c(C(=O)O)c2sccc21` [Example 54, 4-(2-cyanobenzyl)-6-hydroxy-5-oxo-4,5-dihydrothieno[3,2-b]pyridine-7-carboxylic acid], the IC50 fell in the range of 2250 to 10000 nM.
Molecule `COc1ccc(-n2cc(Cn3c(=O)c(O)c(C(=O)O)c4sccc43)nn2)cc1` [Example 25, 6-hydroxy-4-{[1-(4-methoxyphenyl)triazol-4-yl]methyl}-5-oxo-thieno[3,2-b]pyridine-7-carboxylic acid] had an IC50 below 200 nM.
In turn, `O=C(O)c1c(O)c(=O)n(Cc2cn3ccccc3n2)c2ccsc12` [Example 102, 6-hydroxy-4-(imidazo[1,2-a]pyridin-2-ylmethyl)-5-oxo-4,5-dihydrothieno[3,2-b]pyridine-7-carboxylic acid] gave an IC50 of 750 to 2250 nM.
The same measure for `Cc1nn(C)cc1Cn1cc(Cn2c(=O)c(O)c(C(=O)O)c3sccc32)cn1` [Example 134, 4-({1-[(1,3-dimethyl-1H-pyrazol-4-yl)methyl]-1H-pyrazol-4-yl}methyl)-6-hydroxy-5-oxo-4,5-dihydrothieno[3,2-b]pyridine-7-carboxylic acid]: below 200 nM; for `O=C(O)c1c(O)c(=O)n(Cc2cnn(Cc3cncnc3)c2)c2ccsc12` [Example 135, 6-hydroxy-5-oxo-4-{[1-(pyrimidin-5-ylmethyl)-1H-pyrazol-4-yl]methyl}-4,5-dihydrothieno[3,2-b]pyridine-7-carboxylic acid]: below 200 nM.
As for `O=C(O)c1c(O)c(=O)n(Cc2ncn(-c3ccccc3)n2)c2ccsc12` [Example 20, 6-hydroxy-5-oxo-4-[(1-phenyl-1H-1,2,4-triazol-3-yl)methyl]-4,5-dihydrothieno[3,2-b]pyridine-7-carboxylic acid], the figure is 250 to 750 nM.
As for `N#Cc1ccc(-n2cc(Cn3c(=O)c(O)c(C(=O)O)c4sccc43)cn2)cc1` [Example 110, 4-{[1-(4-cyanophenyl)-1H-pyrazol-4-yl]methyl}-6-hydroxy-5-oxo-4,5-dihydrothieno[3,2-b]pyridine-7-carboxylic acid], the figure is below 200 nM.
For `O=C(O)c1c(O)c(=O)n(Cc2ccc(-c3ccccc3)nc2)c2ccsc12` [Example 147, 6-hydroxy-5-oxo-4-[(6-phenylpyridin-3-yl)methyl]-4,5-dihydrothieno[3,2-b]pyridine-7-carboxylic acid], the IC50 lay within 250 to 750 nM.
Turning to `O=C(O)c1c(O)c(=O)n(Cc2cncc3ccccc23)c2ccsc12` [Example 104, 6-hydroxy-4-(isoquinolin-4-ylmethyl)-5-oxo-4,5-dihydrothieno[3,2-b]pyridine-7-carboxylic acid], the half-maximal inhibitory concentration (IC50) was 2250 to 10000 nM.
`O=C(O)c1c(O)c(=O)n(CC2CCCCC2)c2ccsc12` [Example 44, 4-(cyclohexylmethyl)-6-hydroxy-5-oxo-4,5-dihydrothieno[3,2-b]pyridine-7-carboxylic acid] came in with an IC50 of 2250 to 10000 nM.
The same measure for `CNC(=O)c1ccc(Cn2c(=O)c(O)c(C(=O)O)c3sccc32)cc1` [Example 67, 6-hydroxy-4-(4-(methylcarbamoyl)benzyl)-5-oxo-4,5-dihydrothieno[3,2-b]pyridine-7-carboxylic acid]: 250 to 750 nM; for `O=C(O)c1c(O)c(=O)n(Cc2cnn(-c3ccncc3)c2)c2ccsc12` [Example 112, 6-hydroxy-5-oxo-4-{[1-(pyridin-4-yl)-1H-pyrazol-4-yl]methyl}-4,5-dihydrothieno[3,2-b]pyridine-7-carboxylic acid]: 250 to 750 nM.
The same measure for `O=C(O)c1c(O)c(=O)n(CC2COc3ccccc3C2)c2ccsc12` (stereo not drawn) [Example 80, 4-(chroman-3-ylmethyl)-6-hydroxy-5-oxo-4,5-dihydrothieno[3,2-b]pyridine-7-carboxylic acid]: 2250 to 10000 nM; for `O=C(O)c1c(O)c(=O)n(Cc2cccc(C(F)(F)F)c2)c2ccsc12` [Example 43, 6-hydroxy-5-oxo-4-(3-(trifluoromethyl)benzyl)-4,5-dihydrothieno[3,2-b]pyridine-7-carboxylic acid]: 250 to 750 nM.
As for `COCCOc1ccc(Cn2c(=O)c(O)c(C(=O)O)c3sccc32)cc1` [Example 152, 6-hydroxy-4-[4-(2-methoxyethoxy)benzyl]-5-oxo-4,5-dihydrothieno[3,2-b]pyridine-7-carboxylic acid], the IC50 is below 200 nM.
Molecule `CC(C)(C)OC(=O)N1CCCC(Cn2c(=O)c(O)c(C(=O)O)c3sccc32)C1` (stereo not drawn) [Example 61, 4-{[1-(tert-butoxycarbonyl)piperidin-3-yl]methyl}-6-hydroxy-5-oxo-4,5-dihydrothieno[3,2-b]pyridine-7-carboxylic acid] came in with a half-inhibitory concentration (IC50) of 2250 to 10000 nM.
Molecule `Nc1ccc(-n2cc(Cn3c(=O)c(O)c(C(=O)O)c4sccc43)cn2)cc1` [Example 118, 4-{[1-(4-aminophenyl)-1H-pyrazol-4-yl]methyl}-6-hydroxy-5-oxo-4,5-dihydrothieno[3,2-b]pyridine-7-carboxylic acid] displayed an IC50 below 200 nM.
As for `COc1cccc(Cn2cc(Cn3c(=O)c(O)c(C(=O)O)c4sccc43)nn2)c1` [Example 150, 6-hydroxy-4-{[1-(3-methoxybenzyl)-1H-1,2,3-triazol-4-yl]methyl}-5-oxo-4,5-dihydrothieno[3,2-b]pyridine-7-carboxylic acid], the figure is below 200 nM; as for `COc1cccc(Cn2c(=O)c(O)c(C(=O)O)c3sccc32)c1` [Example 52, 6-hydroxy-4-(3-methoxybenzyl)-5-oxo-4,5-dihydrothieno[3,2-b]pyridine-7-carboxylic acid], 250 to 750 nM; as for `O=C(O)c1c(O)c(=O)n(Cc2cnn(Cc3cncs3)c2)c2ccsc12` [Example 123, 6-hydroxy-5-oxo-4-{[1-(thiazol-5-ylmethyl)-1H-pyrazol-4-yl]methyl}-4,5-dihydrothieno[3,2-b]pyridine-7-carboxylic acid], below 200 nM.
The molecule `O=C(O)c1c(O)c(=O)n(Cc2ccc(OC(F)F)cc2)c2ccsc12` [Example 57, 4-(4-(difluoromethoxy)benzyl)-6-hydroxy-5-oxo-4,5-dihydrothieno[3,2-b]pyridine-7-carboxylic acid] had an IC50 below 200 nM.
The same measure for `Nc1ccc(Cn2c(=O)c(O)c(C(=O)O)c3sccc32)cc1Cl` [Example 73, 4-(4-amino-3-chlorobenzyl)-6-hydroxy-5-oxo-4,5-dihydrothieno[3,2-b]pyridine-7-carboxylic acid]: 250 to 750 nM.
The same measure for `COc1ccc(Cn2c(=O)c(O)c(C(=O)O)c3sc(CC(C)C)cc32)cc1` [Example 157, 6-hydroxy-2-isobutyl-4-(4-methoxybenzyl)-5-oxo-4,5-dihydrothieno[3,2-b]pyridine-7-carboxylic acid]: 2250 to 10000 nM; for `CC(=O)Nc1ccccc1Cn1c(=O)c(O)c(C(=O)O)c2sccc21` [Example 39, 4-(2-acetamidobenzyl)-6-hydroxy-5-oxo-4,5-dihydrothieno[3,2-b]pyridine-7-carboxylic acid]: 2250 to 10000 nM.
The same measure for `O=C(O)c1c(O)c(=O)n(CC2CCNCC2)c2ccsc12` [Example 10, 6-hydroxy-5-oxo-4-(4-piperidylmethyl)thieno[3,2-b]pyridine-7-carboxylic acid]: 2250 to 10000 nM.
With `O=C(O)c1c(O)c(=O)n(Cc2ccc(Cl)c(Cl)c2)c2ccsc12` [Example 59, 4-(3,4-dichlorobenzyl)-6-hydroxy-5-oxo-4,5-dihydrothieno[3,2-b]pyridine-7-carboxylic acid], the 50% inhibitory concentration (IC50) is 250 to 750 nM.
`O=C(O)c1c(O)c(=O)n(Cc2nnc(-c3ccccc3)s2)c2ccsc12` [Example 93, 6-hydroxy-5-oxo-4-[(5-phenyl-1,3,4-thiadiazol-2-yl)methyl]-4,5-dihydrothieno[3,2-b]pyridine-7-carboxylic acid] gave an IC50 below 200 nM.
As for `CC(=O)Nc1cc(Cn2c(=O)c(O)c(C(=O)O)c3sccc32)ccc1Cl` [Example 65, 4-(3-acetamido-4-chlorobenzyl)-6-hydroxy-5-oxo-4,5-dihydrothieno[3,2-b]pyridine-7-carboxylic acid], the figure is 250 to 750 nM.

These data come from patent US11584755B2 (IDEAYA BIOSCIENCES, INC., priority 2017, dated 2023).
